Target: T1, LvFSH (LvFHS) (Penaeus vannamei, UniProt A0A3R7MXL5)
T1 construct: gene C7M84_009540; synthetic codon-optimised gene of LvFSH coding region, N-terminal 10-His tag (cutting not mentioned), pJexpress414, E. coli BL21DE3-SI; about 27 kDa on SDS-PAGE, about 58 kDa by gel filtration (probable dimer); catalytic triad Ser111/Asp169/His196 proposed; C-terminal motif KMRELC 214-219
Experiment: spectrophotometric p-nitrophenol release at […] nm, non-linear Michaelis-Menten fit
Assay type: biochemical
Details: 50 mM Tris-HCl pH 8.0, 37 °C, 0.2% (v/v) Triton X-100, 50 mM NaCl; substrate 0.05-2 mM in ethanol

T1 sequence (A0A3R7MXL5 entry or part of it): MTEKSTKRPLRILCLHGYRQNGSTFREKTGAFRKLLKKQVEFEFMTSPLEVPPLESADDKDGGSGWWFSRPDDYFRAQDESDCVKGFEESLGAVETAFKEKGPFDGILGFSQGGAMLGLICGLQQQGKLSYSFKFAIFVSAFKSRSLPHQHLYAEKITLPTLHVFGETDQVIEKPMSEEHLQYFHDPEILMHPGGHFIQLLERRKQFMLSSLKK

With `CC(=O)Oc1ccc([N+](=O)[O-])cc1` [p-nitrophenyl acetate] as the compound, how does the Km read?
Its Km is 1000 ± 40 µM.

Reference: paper PMC6921030, “Biochemical Characterization of a Novel α/β-Hydrolase/FSH from the White Shrimp Litopenaeus vannamei” (Biomolecules, 2019)
